Results on 17 compounds are retold here after ChEMBL document CHEMBL1201862, “PubChem BioAssay data set” (2004).

For one experiment, the system named is SN12K1. The experiment can be described thus: cells. It counts as functional. Conditions: Homo sapiens.
Another experiment deals with T1, Caspase-3 (Homo sapiens, UniProt P42574).
T1 sequence (P42574 whole entry): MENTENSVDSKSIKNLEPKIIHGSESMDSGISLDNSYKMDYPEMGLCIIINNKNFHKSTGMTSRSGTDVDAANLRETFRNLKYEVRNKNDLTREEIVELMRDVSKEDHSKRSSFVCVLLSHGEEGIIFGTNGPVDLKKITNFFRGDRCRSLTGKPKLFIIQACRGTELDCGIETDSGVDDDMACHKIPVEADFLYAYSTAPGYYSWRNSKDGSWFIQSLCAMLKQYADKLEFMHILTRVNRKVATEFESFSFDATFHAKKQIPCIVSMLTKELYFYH
It counts as functional.

Experiment [1] deals with T2, Sentrin-specific protease 7 (Homo sapiens, UniProt Q9BQF6).
T2 sequence (Q9BQF6 whole entry): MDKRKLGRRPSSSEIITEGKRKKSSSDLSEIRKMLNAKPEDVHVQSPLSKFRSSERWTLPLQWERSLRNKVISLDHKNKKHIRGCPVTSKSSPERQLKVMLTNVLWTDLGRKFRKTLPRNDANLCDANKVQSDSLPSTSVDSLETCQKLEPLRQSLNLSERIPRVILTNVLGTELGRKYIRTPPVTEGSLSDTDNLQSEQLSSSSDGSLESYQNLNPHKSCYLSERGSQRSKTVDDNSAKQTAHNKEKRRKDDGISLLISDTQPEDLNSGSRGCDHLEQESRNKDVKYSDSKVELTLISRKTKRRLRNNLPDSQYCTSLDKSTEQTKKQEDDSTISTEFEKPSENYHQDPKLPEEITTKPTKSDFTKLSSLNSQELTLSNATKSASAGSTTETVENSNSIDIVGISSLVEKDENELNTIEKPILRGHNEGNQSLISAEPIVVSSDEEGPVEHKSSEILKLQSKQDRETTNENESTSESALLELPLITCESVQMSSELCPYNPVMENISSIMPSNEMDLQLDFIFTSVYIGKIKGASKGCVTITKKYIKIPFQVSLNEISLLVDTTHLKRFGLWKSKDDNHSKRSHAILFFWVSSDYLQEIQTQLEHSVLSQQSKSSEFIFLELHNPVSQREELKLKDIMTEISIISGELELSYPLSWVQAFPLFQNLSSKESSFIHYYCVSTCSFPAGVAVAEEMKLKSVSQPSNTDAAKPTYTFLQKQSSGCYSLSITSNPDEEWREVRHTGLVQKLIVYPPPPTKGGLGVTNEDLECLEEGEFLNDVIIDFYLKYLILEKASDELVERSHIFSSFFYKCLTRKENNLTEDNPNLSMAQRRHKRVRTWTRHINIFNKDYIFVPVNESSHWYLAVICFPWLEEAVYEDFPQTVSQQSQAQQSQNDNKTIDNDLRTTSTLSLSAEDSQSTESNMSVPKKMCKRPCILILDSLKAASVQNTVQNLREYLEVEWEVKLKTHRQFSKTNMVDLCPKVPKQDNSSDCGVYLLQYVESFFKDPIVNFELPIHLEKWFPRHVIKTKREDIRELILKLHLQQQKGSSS
The experiment is classed as functional.

For experiment [2], the target named is T3, Sentrin-specific protease 6 (Homo sapiens, UniProt Q9GZR1).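 Further: Luminescence-based dose-response confirmatory assay of SENP6 inhibition, following up an ultra-high-throughput screen.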
T3 sequence (Q9GZR1 whole entry): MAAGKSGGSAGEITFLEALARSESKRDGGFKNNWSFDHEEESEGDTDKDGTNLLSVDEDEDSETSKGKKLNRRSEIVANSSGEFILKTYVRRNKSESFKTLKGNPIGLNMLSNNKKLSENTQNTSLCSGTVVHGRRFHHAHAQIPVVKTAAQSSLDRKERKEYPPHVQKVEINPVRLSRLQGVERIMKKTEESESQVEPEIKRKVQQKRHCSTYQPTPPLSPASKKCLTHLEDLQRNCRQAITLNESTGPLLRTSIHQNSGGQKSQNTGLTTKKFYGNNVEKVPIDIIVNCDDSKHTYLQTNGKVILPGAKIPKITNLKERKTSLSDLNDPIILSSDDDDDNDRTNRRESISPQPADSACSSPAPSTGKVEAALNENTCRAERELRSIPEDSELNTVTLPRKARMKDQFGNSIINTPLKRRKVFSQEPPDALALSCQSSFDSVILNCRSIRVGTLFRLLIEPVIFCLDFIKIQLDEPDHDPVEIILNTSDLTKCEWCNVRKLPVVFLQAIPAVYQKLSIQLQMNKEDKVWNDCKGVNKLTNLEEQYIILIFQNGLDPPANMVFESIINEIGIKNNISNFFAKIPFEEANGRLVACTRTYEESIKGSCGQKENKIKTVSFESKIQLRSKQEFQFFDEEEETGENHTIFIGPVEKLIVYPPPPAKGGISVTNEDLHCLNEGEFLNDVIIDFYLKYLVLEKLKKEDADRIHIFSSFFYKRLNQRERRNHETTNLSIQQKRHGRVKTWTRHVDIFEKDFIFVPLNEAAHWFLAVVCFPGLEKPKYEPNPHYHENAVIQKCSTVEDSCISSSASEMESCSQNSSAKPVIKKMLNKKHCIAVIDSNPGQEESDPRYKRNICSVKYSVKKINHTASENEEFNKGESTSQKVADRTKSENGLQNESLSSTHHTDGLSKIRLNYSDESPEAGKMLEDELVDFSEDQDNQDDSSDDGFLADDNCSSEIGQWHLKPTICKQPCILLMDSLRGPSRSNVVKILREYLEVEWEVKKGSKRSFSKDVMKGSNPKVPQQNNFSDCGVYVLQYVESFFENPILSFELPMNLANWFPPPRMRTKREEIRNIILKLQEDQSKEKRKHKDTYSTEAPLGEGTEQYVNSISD
It counts as functional.

Experiment [3] has as its target T4, Sentrin-specific protease 8 (Homo sapiens, UniProt Q96LD8).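 Further: luminescence read-out of SENP8 inhibition, dose-response confirmation following an ultra-high-throughput screen.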
T4 sequence (Q96LD8 whole entry): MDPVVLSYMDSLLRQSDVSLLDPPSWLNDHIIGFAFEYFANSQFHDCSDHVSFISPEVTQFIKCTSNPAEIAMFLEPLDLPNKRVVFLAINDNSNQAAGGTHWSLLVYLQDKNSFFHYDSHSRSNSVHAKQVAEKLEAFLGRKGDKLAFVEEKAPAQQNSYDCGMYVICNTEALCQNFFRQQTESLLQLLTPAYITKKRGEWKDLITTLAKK
It counts as functional.

For another experiment, the target named is Large T antigen (Simian virus 40, UniProt P03070). It counts as functional, Betapolyomavirus macacae.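 Further: Confirmatory-stage PubChem screen for compounds that inhibit SV40 T antigen.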
Large T antigen, sequence (P03070 whole entry): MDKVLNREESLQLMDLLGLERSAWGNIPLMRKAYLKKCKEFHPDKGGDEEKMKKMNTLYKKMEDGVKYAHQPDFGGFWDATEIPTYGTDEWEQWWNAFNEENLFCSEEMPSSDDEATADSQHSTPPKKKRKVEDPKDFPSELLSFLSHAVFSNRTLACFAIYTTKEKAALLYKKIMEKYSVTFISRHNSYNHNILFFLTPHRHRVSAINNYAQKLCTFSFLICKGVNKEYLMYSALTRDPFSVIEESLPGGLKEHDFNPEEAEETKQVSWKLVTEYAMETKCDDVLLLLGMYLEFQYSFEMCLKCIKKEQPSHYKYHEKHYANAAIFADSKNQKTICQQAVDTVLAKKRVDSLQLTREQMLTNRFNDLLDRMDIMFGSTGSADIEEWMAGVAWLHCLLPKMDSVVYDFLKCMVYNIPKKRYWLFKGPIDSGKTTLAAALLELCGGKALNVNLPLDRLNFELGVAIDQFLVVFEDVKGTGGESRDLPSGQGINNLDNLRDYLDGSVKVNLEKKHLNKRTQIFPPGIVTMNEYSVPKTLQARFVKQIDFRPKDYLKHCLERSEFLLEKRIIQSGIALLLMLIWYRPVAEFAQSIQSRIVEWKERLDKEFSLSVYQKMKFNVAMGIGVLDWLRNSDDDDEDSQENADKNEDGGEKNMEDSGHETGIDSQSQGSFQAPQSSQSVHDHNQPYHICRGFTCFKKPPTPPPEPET
Experiment [4] in a line: viability of uninfected HEp-2 cells – cell-based, HTS, cytotoxicity control for RSV inhibitor project, dose response (AID 2410). The experiment is classed as functional. Conditions: human respiratory syncytial virus.
Experiment [5] is described as follows: A Cell Based Secondary Assay To Explore Cytotoxicity of Compounds that Sensitize Mycobacterium Tuberculosis to Beta-Lactam Antibiotics. It counts as functional.
For experiment [6], the target named is T5, Rac GTPase-activating protein 1 (Homo sapiens, UniProt Q9H0H5).
T5 sequence (Q9H0H5 whole entry): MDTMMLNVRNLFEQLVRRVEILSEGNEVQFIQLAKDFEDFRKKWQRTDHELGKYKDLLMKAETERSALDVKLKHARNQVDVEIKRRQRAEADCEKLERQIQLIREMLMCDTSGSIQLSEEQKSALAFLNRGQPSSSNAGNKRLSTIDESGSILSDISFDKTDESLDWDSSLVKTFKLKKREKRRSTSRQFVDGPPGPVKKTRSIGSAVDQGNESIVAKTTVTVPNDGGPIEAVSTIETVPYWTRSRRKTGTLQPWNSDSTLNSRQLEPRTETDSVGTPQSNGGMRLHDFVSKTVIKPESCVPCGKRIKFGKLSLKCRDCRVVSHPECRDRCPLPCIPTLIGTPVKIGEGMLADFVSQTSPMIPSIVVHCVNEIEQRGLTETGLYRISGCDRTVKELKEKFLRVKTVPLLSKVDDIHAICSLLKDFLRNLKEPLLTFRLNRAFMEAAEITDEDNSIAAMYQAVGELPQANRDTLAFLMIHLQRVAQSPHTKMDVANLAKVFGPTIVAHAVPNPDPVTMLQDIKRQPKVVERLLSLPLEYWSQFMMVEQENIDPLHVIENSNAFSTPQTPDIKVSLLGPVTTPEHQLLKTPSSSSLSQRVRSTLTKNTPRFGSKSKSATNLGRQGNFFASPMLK
In words: blockers of MgcRacGAP-driven Rac1 GTP hydrolysis – biochemical, ADP Hunter fluorescence, primary and confirmatory, confirmation (AID 624330). It counts as functional.

Activity calls are given as the source filed them. Bounds are passed on as bounds.

On to `Nc1ccn(C2C=C(CO)C(O)C2O)c(=O)c1` (centres undefined), for which the GI50 in the experiment on SN12K1 was > 625 µM (inactive).

Consider `NC(=NOC(=O)c1ccc(Cl)cc1Cl)c1ccc(Cl)cc1`, for which the IC50 on Caspase-3 was 35.6 µM (active); in experiment [1], 9.34 µM (active); in experiment [2] it was > 100 µM (inactive); in experiment [3], > 100 µM (inactive).

On to `CCNc1nc(NCC)nc(N/N=C/c2ccc(O)c(OC)c2)n1`, for which the IC50 at Large T antigen was 11 µM (active).

Turning to `CCc1nnc(S)n1/N=C/c1ccc(N(C)c2ccccc2)cc1`, the half-maximal cytotoxic concentration (CC50) in experiment [4] is 28.1 µM (active).

For `C=C(C)c1sc(-c2ccc(Cl)cc2)nc1C`, the half-inhibitory concentration (IC50) at Caspase-3 was 13.4 µM (active); in [1] it was 6.67 µM (active); in [2] it was 21.4 µM (active); in experiment [3] it was 69.1 µM (active).

For the compound `CCOC(=O)C1C(=O)C=C(c2ccc(C)cc2)CC1c1ccccc1` (centres undefined), in experiment [4], the 50% cytotoxic concentration (CC50) was 35.4 µM (active).

`Cc1ccc(-n2nc3c(=O)n(CCCC(=O)NCc4cccc(F)c4)nc(C)c3c2C)cc1`: in experiment [4], the 50% cytotoxic concentration (CC50) is > 50 µM (active).

`CC(C)(c1cc(Br)c(O)c(Br)c1)c1cc(Br)c(O)c(Br)c1`: in experiment [4], the 50% cytotoxic concentration (CC50) was 24.9 µM (active).

In the case of `Nc1nc2ccccc2n1/N=C/c1ccc(Br)cc1`, the IC50 is 16.1 µM (active) on Caspase-3, 4.21 µM (active) in [1], 5.96 µM (active) in [2] and 5.66 µM (active) in experiment [3].

Take `CSc1nc(C(=O)N2CCc3c([nH]c4ccccc34)C2c2ccccn2)cs1` (centres undefined): in experiment [4], the CC50 is 30.1 µM (active).

Turning to `COc1ccc(-c2nc(O)c3cnccn23)cc1`, the half-inhibitory concentration (IC50) at Large T antigen was 24.2 µM (active).

Regarding `N=C1/C(=N\Nc2ccccc2F)C(=O)NN1c1ccccc1`, the IC50 at Caspase-3 was 16.4 µM (active); in experiment [1], 2.52 µM (active); in experiment [2], 2.09 µM (active); in [3] it was > 100 µM (inactive).

On to `Cc1ccc(O)c(-c2cc(-c3ccccc3F)[nH]n2)c1`, for which the CC50 in experiment [5] was > 40 µM (active). Further, the IC50 at Caspase-3 is 31.9 µM (active); in [1], 3.4 µM (active); in experiment [2], 21.9 µM (active); in experiment [3] it was 4.59 µM (active).

Turning to `COc1ccc(Nc2nc(-c3cccs3)nc3ccccc23)c(OC)c1`, in [4], the cytotoxic concentration (CC50) was 32.9 µM (active).

In the case of `CCCOC(=O)c1cc(-c2ccc(C=O)o2)ccc1Cl`, in [4], the CC50 is 36.9 µM (active).

Consider `CCOC(=O)C1=C(C)N(c2ccccc2)C(=O)/C1=C\c1ccc(O)c(OC)c1`, for which, on Large T antigen, the 50% inhibitory concentration (IC50) is 47.1 µM (active).

Consider `COc1ccc(/C=N\NC(=O)c2ccc(O)nn2)cc1O`, for which the half-inhibitory concentration (IC50) at Large T antigen was 14.3 µM (active); in experiment [6] it was 26.5 µM (active).
